IC50 and Activity data for 7 compounds are collected here from ChEMBL document CHEMBL1155763, “The alkaloids of Artabotrys uncinatus” (J Nat Prod, 2001).

In brackets after ≈: the same amount, converted by molar mass. Activity calls are given as the source filed them. No cut-off for these calls is given here.

Assay [1] in a line: Cytotoxicity against human HepG2(2.2.15) cells. In kind it is functional, cell-based.
For another assay, the system named is HepG2. In words: Cytotoxicity against human HepG2 cells. In kind it is functional, cell-based.
The target of assay [2] is Prothrombin (Homo sapiens) (UniProt P00734). Description: Inhibition of thrombin-mediated conversion of fibrinogen to fibrin.

Broadly, the IC50 is the midpoint of a concentration-inhibition curve. Low values mean inhibition by little substance, high ones a need for much substance. Consider `COC1=C[C@@]23CCN(C)[C@@H](Cc4ccc(OC)c(O)c42)C3=CC1=O`, for which the IC50 amounted to 10.4 µg/mL (≈ 31.8 µM) in assay [1] and 10.2 µg/mL (≈ 31.2 µM) in the assay on HepG2. Besides, the outcome in assay [2] was inactive.

As to `NC(=O)N1CCCC1=O` [SQUAMOLONE], the IC50 in assay [1] is 1.6 µg/mL (≈ 12.5 µM); in the assay on HepG2, 2.8 µg/mL (≈ 21.9 µM). Further, the outcome in assay [2] was inactive.

In the case of `COc1c2c3c(c4c1OCO4)-c1ccccc1[C@@H](O)[C@H]3NCC2` [ARTABONATINE B], the IC50 in assay [1] turned out to be 11 µg/mL (≈ 35.3 µM); with HepG2 it was 9.1 µg/mL (≈ 29.2 µM). The result in assay [2] was inactive.

As for `CC(C)=C1C=C(CN2CCCC2=O)C(=O)O1` [UNCININE], the IC50 was 7.4 µg/mL (≈ 33.4 µM) in assay [1] and 6.1 µg/mL (≈ 27.6 µM) in the assay on HepG2. For the same compound, in assay [2], the result was inactive.

For the compound `COc1c2c3c(c4c1OCO4)-c1ccccc1C[C@H]3N(C(C)=O)CC2`, the IC50 in assay [1] stood at 9.3 µg/mL (≈ 27.6 µM); in the assay on HepG2, 9.8 µg/mL (≈ 29 µM). Moreover, the result in assay [2] was inactive.

As to `COc1ccc2c(c1)C(=O)c1nccc3cc4c(c-2c13)OCO4` [ATHEROSPERMIDINE], the IC50 in assay [1] is 2.2 µg/mL (≈ 7.21 µM); in the assay with HepG2 it was 0.8 µg/mL (≈ 2.62 µM). In addition, the result in assay [2] was inactive.

Take `COC1=C[C@]23CCN(C)[C@H](Cc4cc(OC)c(O)cc42)C3=CC1=O` [FLAVINANTINE]: the values for the IC50 (in assay [1]; with HepG2) were 9.7 µg/mL (≈ 29.6 µM) and 9.3 µg/mL (≈ 28.4 µM), respectively. Further, the result in assay [2] was inactive.
